Measurements: PubChem BioAssay (NCI)
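Step 1: Grow cells in 96-well plates. Step 2: Expose to compound for 48 hours at 5 concentrations. Step 3: Interpolate endpoints linearly; if unreached, use highest concentration. Abbreviation: GI50, concentration required for 50% inhibition of growth. Definition used: TGI = concentration required for complete inhibition of growth.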

Assays:
Assay in all cases: inhibition of tumour cell growth, NCI panel, 48 h
[1] = test system: CAKI-1 renal
[2] = test system: SF-539 CNS
[3] = test system: RPMI-8226 leukemia
[4] = test system: HOP-62 NSCLC
[5] = test system: OVCAR-3 ovarian
[6] = test system: HCT-15 colon
[7] = test system: PC-3 prostate
[8] = test system: TK-10 renal
[9] = test system: BT-549 breast
[10] = test system: OVCAR-5 ovarian
[11] = test system: UACC-257 melanoma
[12] = test system: HCC-2998 colon
[13] = test system: SK-OV-3 ovarian
[14] = test system: SW-620 colon
[15] = test system: K-562 leukemia
[16] = test system: SK-MEL-28 melanoma
[17] = test system: NCI-H23 lung
[18] = test system: MOLT-4 leukemia
[19] = test system: RXF 393 renal
[20] = test system: SNB-75 CNS
[21] = test system: COLO 205 colon
[22] = test system: LOX IMVI melanoma
[23] = test system: DU-145 prostate
[24] = test system: SN12C renal
[25] = test system: SF-295 CNS
[26] = test system: KM12 colon
[27] = test system: U251 CNS
[28] = test system: UO-31 renal
[29] = test system: MALME-3M melanoma
[30] = test system: HS 578T breast
[31] = test system: NCI-H460 lung
[32] = test system: OVCAR-4 ovarian
[33] = test system: M14 melanoma
[34] = test system: SK-MEL-5 melanoma
[35] = test system: UACC-62 melanoma
[36] = test system: MDA-MB-231 breast
[37] = test system: T-47D breast
[38] = test system: SNB-19 CNS
[39] = test system: A498 renal
[40] = test system: ACHN renal
[41] = test system: MCF7 breast
[42] = test system: SK-MEL-2 melanoma
[43] = test system: EKVX NSCLC
[44] = test system: NCI-H522 lung
[45] = test system: NCI/ADR-RES ovarian
[46] = test system: IGROV1 ovarian
[47] = test system: OVCAR-8 ovarian
[48] = test system: HOP-92 NSCLC
[49] = test system: HCT-116 colon
[50] = test system: 786-0 renal
[51] = test system: SF-268 CNS
[52] = test system: CCRF-CEM leukemia
[53] = test system: A549 NSCLC
[54] = test system: NCI-H226 lung
[55] = test system: HT29 colon
[56] = test system: MDA-MB-435

With `CCC(C)n1ncn(-c2ccc(N3CCN(c4ccc(OCC5COC(Cn6cncn6)(c6ccc(Cl)cc6Cl)O5)cc4)CC3)cc2)c1=O` (configuration not stated) the GI50 [1] was 2.88 µM, the TGI [1] was greater than 100 µM and the GI50 [2] was 7.73 µM. The TGI [2] was greater than 100 µM, the GI50 [3] was 0.973 µM and the TGI [3] was greater than 100 µM. It also gave a GI50 [4] of 8.97 µM, a TGI [4] of 37 µM and a GI50 [5] of 40.9 µM. The TGI [5] was greater than 100 µM, the GI50 [6] was 15.3 µM and the TGI [6] was greater than 100 µM. For the same molecule, the GI50 [7] was 3.96 µM, the TGI [7] was greater than 100 µM and the GI50 [8] was 28.6 µM. It also gave a TGI [8] greater than 100 µM, a GI50 [9] of 3.6 µM and a TGI [9] greater than 100 µM. The GI50 [10] was 56.3 µM, the TGI [10] was greater than 100 µM and the GI50 [11] was 57.7 µM. The TGI [11] was greater than 100 µM, the GI50 [12] was 84.1 µM and the TGI [12] was greater than 100 µM. For the same molecule, the GI50 [13] was 24.2 µM, the TGI [13] was greater than 100 µM and the GI50 [14] was greater than 100 µM. The TGI [14] was greater than 100 µM, the GI50 [15] was 9.76 µM and the TGI [15] was greater than 100 µM. It also gave a GI50 [16] greater than 100 µM, a TGI [16] greater than 100 µM and a GI50 [17] of 27.8 µM. The TGI [17] was greater than 100 µM, the GI50 [18] was greater than 100 µM and the TGI [18] was greater than 100 µM. The GI50 [19] was 0.267 µM, the TGI [19] was 0.865 µM and the GI50 [20] was 11.4 µM. The TGI [20] was 71.2 µM, the GI50 [21] was 4.12 µM and the TGI [21] was greater than 100 µM. The GI50 [22] was 9.41 µM, the TGI [22] was greater than 100 µM and the GI50 [23] was greater than 100 µM. The TGI [23] was greater than 100 µM, the GI50 [24] was greater than 100 µM and the TGI [24] was greater than 100 µM. It also gave a GI50 [25] of 1.4 µM, a TGI [25] greater than 100 µM and a GI50 [26] of 5.69 µM. The TGI [26] was greater than 100 µM, the GI50 [27] was 4.03 µM and the TGI [27] was greater than 100 µM. For the same molecule, the GI50 [28] was 30 µM, the TGI [28] was greater than 100 µM and the GI50 [29] was 46.2 µM. It also gave a TGI [29] greater than 100 µM, a GI50 [30] of 7.42 µM and a TGI [30] greater than 100 µM. It also gave a GI50 [31] of 9.62 µM, a TGI [31] greater than 100 µM and a GI50 [32] of 35.2 µM. The TGI [32] was greater than 100 µM, the GI50 [33] was 5.91 µM and the TGI [33] was greater than 100 µM. For the same molecule, the GI50 [34] was 2.75 µM, the TGI [34] was greater than 100 µM and the GI50 [35] was 17.6 µM. It also gave a TGI [35] greater than 100 µM, a GI50 [36] of 7.11 µM and a TGI [36] greater than 100 µM. It also gave a GI50 [37] of 1.27 µM, a TGI [37] of 74.3 µM and a GI50 [38] of 38.9 µM. For the same molecule, the TGI [38] was greater than 100 µM, the GI50 [39] was 10.8 µM and the TGI [39] was greater than 100 µM. It also gave a GI50 [40] of 21.7 µM, a TGI [40] greater than 100 µM and a GI50 [41] of 22.2 µM. The TGI [41] was greater than 100 µM, the GI50 [42] was 13.8 µM and the TGI [42] was 68.9 µM. For the same molecule, the GI50 [43] was 1.24 µM, the TGI [43] was greater than 100 µM and the GI50 [44] was 15.4 µM. It also gave a TGI [44] of 60.8 µM, a GI50 [45] of 26.1 µM and a TGI [45] greater than 100 µM. It also gave a GI50 [46] of 82.5 µM, a TGI [46] greater than 100 µM and a GI50 [47] of 20.2 µM. For the same molecule, the TGI [47] was greater than 100 µM, the GI50 [48] was 0.335 µM and the TGI [48] was 24.5 µM. The GI50 [49] was 21.6 µM, the TGI [49] was greater than 100 µM and the GI50 [50] was 0.559 µM. For the same molecule, the TGI [50] was 32.7 µM, the GI50 [51] was 33.6 µM and the TGI [51] was greater than 100 µM. For the same molecule, the GI50 [52] was greater than 100 µM, the TGI [52] was greater than 100 µM and the GI50 [53] was 35.8 µM. For the same molecule, the TGI [53] was greater than 100 µM, the GI50 [54] was 28.1 µM and the TGI [54] was greater than 100 µM. It also gave a GI50 [55] of 0.867 µM, a TGI [55] greater than 100 µM and a GI50 [56] greater than 100 µM. The TGI [56] was greater than 100 µM.
